Drawing on ChEMBL document CHEMBL1152536, “Molecular modeling of human acidic mammalian chitinase in complex with the natural-product cyclopentapeptide chitinase inhibitor argifin” (Bioorg Med Chem, 2009), this text covers IC50 for one compound.

This experiment deals with Acidic mammalian chitinase (Homo sapiens, UniProt Q9BZP6). Nature of the experiment: Inhibition of human acidic mammalian chitinase.
Sequence of Acidic mammalian chitinase (Q9BZP6 whole entry): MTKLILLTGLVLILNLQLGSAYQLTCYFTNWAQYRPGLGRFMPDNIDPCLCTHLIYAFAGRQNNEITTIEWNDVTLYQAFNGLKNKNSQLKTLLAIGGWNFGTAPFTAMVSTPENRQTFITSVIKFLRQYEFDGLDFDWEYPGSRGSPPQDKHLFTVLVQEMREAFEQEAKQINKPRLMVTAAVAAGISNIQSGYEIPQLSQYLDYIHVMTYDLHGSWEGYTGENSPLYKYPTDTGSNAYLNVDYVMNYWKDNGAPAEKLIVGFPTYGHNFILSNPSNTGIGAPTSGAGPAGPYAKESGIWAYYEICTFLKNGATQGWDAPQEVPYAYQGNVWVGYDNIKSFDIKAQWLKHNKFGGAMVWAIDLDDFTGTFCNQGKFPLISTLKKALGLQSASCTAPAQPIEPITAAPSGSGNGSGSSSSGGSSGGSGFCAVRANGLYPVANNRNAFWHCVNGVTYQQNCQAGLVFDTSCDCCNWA

In turn, `CNC(=O)NC(=N)NCCC[C@@H]1NC(=O)[C@@H](C)NC(=O)C[C@@H](C(=O)O)NC(=O)C[C@@H](C(=O)O)NC(=O)[C@H](Cc2ccccc2)N(C)C1=O` [ARGIFIN] had an IC50 of 4.5 µM.
